Read-outs that look alike come from different tables or passages of the source.
Experiments:
Type in all cases: in vivo
Barnyardgrass [1] = test: pre-emergence herbicide test; conditions: Echinochloa crus-galli, pre-emergence, read-out: % plant inhibition
In short: (§1)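 Herbicidal effect was assessed as percent inhibition about 14 days after sowing. A known amount of compound was added to the covering topsoil, and the pans were subirrigated in a greenhouse.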

Cocklebur [2] = test: pre-emergence herbicide test; conditions: Xanthium strumarium, pre-emergence, read-out: % plant inhibition
In short: as §1

Corn = test: pre-emergence herbicide test; conditions: Zea mays, pre-emergence, read-out: % plant inhibition
In short: as §1

Morning Glory = test: pre-emergence herbicide test; conditions: Ipomoea, pre-emergence, read-out: % plant inhibition
In short: as §1

Rice = test: pre-emergence herbicide test; conditions: Oryza sativa, read-out: % plant inhibition
In short: as §1

Soybean [3] = test: pre-emergence herbicide test; conditions: Glycine max, pre-emergence, read-out: % plant inhibition
In short: as §1

Velvetleaf = test: pre-emergence herbicide test; conditions: Abutilon theophrasti, pre-emergence, read-out: % plant inhibition
In short: as §1

Yellow Foxtail = test: pre-emergence herbicide test; conditions: Setaria, read-out: % plant inhibition
In short: as §1

Yellow Nutsedge = test: pre-emergence herbicide test; conditions: Cyperus, read-out: % plant inhibition
In short: as §1

Barnyardgrass [4] = test: post-emergence herbicide test; conditions: Echinochloa crus-galli, post-emergence, read-out: % plant inhibition
In short: (§2)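 Percent inhibition of each species scored after post-emergence spraying of two- to three-week-old greenhouse plants. Spray solution carried about 0.4% by volume emulsifier, delivered by atomizer at 170.3 kPa (10 psig) and 1870 L/Ha total volume.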

Bedstraw Catchweed = test: post-emergence herbicide test; conditions: Galium aparine, post-emergence, read-out: % plant inhibition
In short: as §2

Blackgrass = test: post-emergence herbicide test; conditions: Alopecurus myosuroides, post-emergence, read-out: % plant inhibition; for inhibition at 7.95803 g/ha: 0.0071 lb/A; for inhibition at 40.0143 g/ha: 0.0357 lb/A; for inhibition at 200.072 g/ha: 0.1785 lb/A; for inhibition at 1000.92 g/ha: 0.893 lb/A
In short: as §2

Cocklebur [5] = test: post-emergence herbicide test; conditions: Xanthium strumarium, post-emergence, read-out: % plant inhibition
In short: as §2

Soybean [6] = test: post-emergence herbicide test; conditions: Glycine max, post-emergence, read-out: % plant inhibition
In short: as §2

Wheat = test: post-emergence herbicide test; conditions: Triticum aestivum, post-emergence, read-out: % plant inhibition
In short: as §2

Cc1c(-c2cc(OCC(=O)OC(C)C)c(Cl)cc2F)nn(C)c1C(F)(F)F [Compound 38]
80%: inhibition at 40.0143 g/ha (Velvetleaf; 0.0357 lb/A) | inhibition at 7.95803 g/ha (Cocklebur [5]; 0.0071 lb/A) | inhibition at 40.0143 g/ha (Cocklebur [5]; 0.0357 lb/A) | inhibition at 200.072 g/ha (Cocklebur [5]; 0.1785 lb/A)
75%: inhibition at 40.0143 g/ha (Morning Glory; 0.0357 lb/A)
25%: inhibition at 200.072 g/ha (Yellow Foxtail; 0.1785 lb/A) | inhibition at 40.0143 g/ha (Blackgrass; Table 5a) | inhibition at 1000.92 g/ha (Soybean [6]; 0.893 lb/A)
85%: inhibition at 200.072 g/ha (Cocklebur [2]; 0.1785 lb/A) | inhibition at 1000.92 g/ha (Yellow Nutsedge; 0.893 lb/A) | inhibition at 40.0143 g/ha (Bedstraw Catchweed; 0.0357 lb/A) | inhibition at 1000.92 g/ha (Bedstraw Catchweed; 0.893 lb/A)
95%: inhibition at 200.072 g/ha (Morning Glory; 0.1785 lb/A)
65%: inhibition at 40.0143 g/ha (Cocklebur [2]; 0.0357 lb/A) | inhibition at 1000.92 g/ha (Yellow Foxtail; 0.893 lb/A)
5%: inhibition at 40.0143 g/ha (Soybean [3]; 0.0357 lb/A) | inhibition at 1000.92 g/ha (Blackgrass; Table 5a)
40%: inhibition at 1000.92 g/ha (Corn; 0.893 lb/A) | inhibition at 1000.92 g/ha (Rice; 0.893 lb/A) | inhibition at 280.212 g/ha (Yellow Foxtail; 0.25 lb/A)
90%: inhibition at 1000.92 g/ha (Cocklebur [2]; 0.893 lb/A) | inhibition at 200.072 g/ha (Bedstraw Catchweed; 0.1785 lb/A)
70%: inhibition at 1000.92 g/ha (Barnyardgrass [1]; 0.893 lb/A) | inhibition at 280.212 g/ha (Cocklebur [2]; 0.25 lb/A) | inhibition at 1000.92 g/ha (Soybean [3]; 0.893 lb/A)
100%: inhibition at 280.212 g/ha (Morning Glory; 0.25 lb/A) | inhibition at 1000.92 g/ha (Morning Glory; 0.893 lb/A) | inhibition at 7.95803 g/ha (Velvetleaf; 0.0071 lb/A) | inhibition at 280.212 g/ha (Velvetleaf; 0.25 lb/A) | inhibition at 1000.92 g/ha (Velvetleaf; 0.893 lb/A) | inhibition at 280.212 g/ha (Cocklebur [5]; 0.25 lb/A) | inhibition at 1000.92 g/ha (Cocklebur [5]; 0.893 lb/A)
30%: inhibition at 200.072 g/ha (Blackgrass; Table 5a) | inhibition at 200.072 g/ha (Soybean [6]; 0.1785 lb/A)
0%: inhibition at 7.95803 g/ha (Barnyardgrass [1]; 0.0071 lb/A) | inhibition at 7.95803 g/ha (Corn; 0.0071 lb/A) | inhibition at 40.0143 g/ha (Corn; 0.0357 lb/A) | inhibition at 200.072 g/ha (Corn; 0.1785 lb/A) | inhibition at 7.95803 g/ha (Rice; 0.0071 lb/A) | inhibition at 40.0143 g/ha (Rice; 0.0357 lb/A) | inhibition at 200.072 g/ha (Rice; 0.1785 lb/A) | inhibition at 7.95803 g/ha (Soybean [3]; 0.0071 lb/A) | inhibition at 280.212 g/ha (Soybean [3]; 0.25 lb/A) | inhibition at 7.95803 g/ha (Yellow Foxtail; 0.0071 lb/A) | inhibition at 40.0143 g/ha (Yellow Foxtail; 0.0357 lb/A) | inhibition at 7.95803 g/ha (Yellow Nutsedge; 0.0071 lb/A) | inhibition at 200.072 g/ha (Yellow Nutsedge; 0.1785 lb/A) | inhibition at 7.95803 g/ha (Blackgrass; Table 4a) | inhibition at 7.95803 g/ha (Blackgrass; Table 5a) | inhibition at 40.0143 g/ha (Blackgrass; Table 4a) | inhibition at 1000.92 g/ha (Blackgrass; Table 4a)
20%: inhibition at 7.95803 g/ha (Morning Glory; 0.0071 lb/A) | inhibition at 40.0143 g/ha (Yellow Nutsedge; 0.0357 lb/A) | inhibition at 40.0143 g/ha (Soybean [6]; 0.0357 lb/A)
10%: inhibition at 7.95803 g/ha (Barnyardgrass [4]; 0.0071 lb/A) | inhibition at 40.0143 g/ha (Barnyardgrass [4]; 0.0357 lb/A) | inhibition at 200.072 g/ha (Blackgrass; Table 4a) | inhibition at 7.95803 g/ha (Soybean [6]; 0.0071 lb/A) | inhibition at 7.95803 g/ha (Wheat; 0.0071 lb/A) | inhibition at 40.0143 g/ha (Wheat; 0.0357 lb/A) | inhibition at 200.072 g/ha (Wheat; 0.1785 lb/A) | inhibition at 1000.92 g/ha (Wheat; 0.893 lb/A)
15%: inhibition at 40.0143 g/ha (Barnyardgrass [1]; 0.0357 lb/A) | inhibition at 200.072 g/ha (Barnyardgrass [4]; 0.1785 lb/A) | inhibition at 1000.92 g/ha (Barnyardgrass [4]; 0.893 lb/A) | inhibition at 280.212 g/ha (Soybean [6]; 0.25 lb/A)
35%: inhibition at 200.072 g/ha (Barnyardgrass [1]; 0.1785 lb/A) | inhibition at 7.95803 g/ha (Bedstraw Catchweed; 0.0071 lb/A)
98%: inhibition at 200.072 g/ha (Velvetleaf; 0.1785 lb/A)

Source: patent US5672715A, “Herbicidal substituted 3-aryl-pyrazoles” (Monsanto Company, priority 1995, dated 1997)
